The conditions of data set [1]: in vivo; cited from earlier work.
Data set [2] can be described thus: Simultaneous dual-radiotracer SPECT/CT imaging of 99mTc-Sestamibi and 201Tl-Cl uptake. In kind it is in vivo, mouse and rat. To be noted: FIG. 1; for retention in muscle: i.v. single injection of both agents, imaging 3 hours later. The protocol:
This example describes an imaging approach for assessing skeletal muscle health by administering ^99mTc-Sestamibi and ^201Tl—Cl both in a single intravenous injection and then simultaneously detecting their accumulation into skeletal muscle through SPECT imaging via distinct radiation energy windows, which are specific for each isotope. Through this approach, each imaging agent alone, as well as the change in uptake of one agent relative to the other, was measured, permitting evaluation of multiple physiological processes in muscle simultaneously.
Imaging agents (^99mTc-Sestamibi and ^201Tl-Chloride) were ordered from commercial radiopharmacies for calibration and delivery on each day of SPECT imaging. Imaging agents were administered by intravenous injection in the lateral tail-vein. Animals were returned to their cages after injection for the distribution period or placed directly on the imaging system for SPECT acquisition, depending on the imaging protocol and desired time-points. For the imaging session, subjects were anesthetized using a gas mixture of isoflurane and oxygen. In-vivo SPECT and CT data were acquired using the NanoSPECT/CT® (Bioscan, Washington, D.C.), a dual modality imaging system that combines a 4-headed SPECT camera with a computed tomography (CT) acquisition system on the same axis of rotation. During imaging, subjects were placed on a heated bed with integrated anesthesia delivery and bed heating. The animals' body temperatures were maintained at 36 to 37° C. for the duration of image acquisition. Each imaging time-point included three scans: a planar x-ray scout scan, an x-ray CT scan for anatomical reference (6-9 min., 45-65 KVp, 180 angular projections per FOV), and a SPECT scan (20-90 min., 20 angular projections per FOV). SPECT data were reconstructed using the HiSPECT processing module (Scivis GmbH, Gottingen, Germany). […] Uptake and concentration of radiotracer were quantified in select regions-of-interest (ROI) using the VivoQuant™ post-processing suite. […]

For data set [3] the following is noted: prepared radiopharmaceutical; cited from earlier work.
For data set [4], the system named is skeletal muscle. The data set is described as follows: Effect of neuromuscular stimulation with edrophonium on 99mTc-Sestamibi and 201Tl-Cl uptake into muscle (SPECT/CT). Format: in vivo, rats. The protocol:
In order to assess the action of neuromuscular stimulation on ^99mTc-Sestamibi and ^201Tl—Cl uptake into muscle we used the acetylcholinesterase inhibitor edrophonium (0.2 mg/kg, i.v.) to enhance ongoing neuromuscular synaptic transmission. We used three different cohorts of animals (n=3). In one cohort we examined baseline neuromuscular activity by giving the ^99mTc-Sestamibi and ^201Tl—Cl (listed as m/t in figure) at time zero and acquiring images under brief isoflurane anesthesia at 30 minutes post injection. Another cohort received edrophonium injection immediately following the m/t dosing but prior to the imaging under anesthesia. The last cohort received the edrophonium 30 minutes prior to the m/t dosing. This approach standardized the anesthesia and imaging phase of the experiment while making the edrophonium dose timing the only variable.
FIG. 4 is an exemplary schematic diagram of an experiment assessing the impact of edrophonium on the pharmacokinetics of ^99mTc-Sestamibi and ^201Tl—Cl. ^99mTc-Sestamibi and ^201Tl—Cl were imaged in three cohorts of rats (n of 3 each): control/baseline; prior to injection of 0.2 mg/kg of edrophonium; following injection of 0.2 mg/kg of edrophonium. Whole body SPECT/CT images were collected 30 minutes post-injection of the mixed ^99mTc-Sestamibi and ^201Tl—Cl dose. The drugs' gamma emissions of the radioisotopes (^99mTc and ^201Tl) were collected in separate energy windows, permitting simultaneous imaging of the relevant radiopharmaceuticals. […] Thallium uptake was increased by the introduction of edrophonium in control rats as indicated qualitatively by brighter muscle uptake on a common scale.
However, either pre- or post-m/t, edrophonium dosing had no effect on ^99mTc-Sestamibi uptake into muscle. FIG. 6 depicts comparison of radiopharmaceutical uptake in skeletal muscle between two imaging paradigms. The ‘+’ represents subjects that received an edrophonium injection (i.v.) immediately after radiotracer administration. […] All other aspects of data collection were identical between the ‘+’ and ‘−’ scenarios. Quantitative units of radioactivity per volume was expressed as uptake: percent injected dose (% ID), activity (mCi, kBq).

Data set [5] has as its system skeletal muscle. Kind of data set: Effect of continuous isoflurane anesthesia on muscle uptake of the two radiopharmaceutical agents (SPECT). Format: in vivo. The conditions noted are these: continuous anesthesia through 30 minute uptake period vs awake uptake period; right and left legs; FIG. 3. The procedure:
Imaging agents (^99mTc-Sestamibi and ^201Tl-Chloride) were ordered from commercial radiopharmacies for calibration and delivery on each day of SPECT imaging. Imaging agents were administered by intravenous injection in the lateral tail-vein. Animals were returned to their cages after injection for the distribution period or placed directly on the imaging system for SPECT acquisition, depending on the imaging protocol and desired time-points. For the imaging session, subjects were anesthetized using a gas mixture of isoflurane and oxygen. In-vivo SPECT and CT data were acquired using the NanoSPECT/CT® (Bioscan, Washington, D.C.), a dual modality imaging system that combines a 4-headed SPECT camera with a computed tomography (CT) acquisition system on the same axis of rotation. During imaging, subjects were placed on a heated bed with integrated anesthesia delivery and bed heating. The animals' body temperatures were maintained at 36 to 37° C. for the duration of image acquisition. […] Uptake and concentration of radiotracer were quantified in select regions-of-interest (ROI) using the VivoQuant™ post-processing suite.
This need for imaging under anesthesia in animals is not necessary in human imaging studies. […] Quantitative units of radioactivity per volume was expressed as uptake: percent injected dose (% ID), activity (mCi, kBq). […]

The mark [6] stands for this setting: edrophonium i.v. immediately after radiotracer administration vs none, FIG. 6.

“Also recorded” adds a separate entry of the source.

Consider 5 compounds from patent US11040119B2, “Compositions and methods for assessing neuromuscular function” (Biogen MA Inc., priority 2013, dated 2021).

Regarding `[C-]#[N+]CC(C)(C)OC.[C-]#[N+]CC(C)(C)OC.[C-]#[N+]CC(C)(C)OC.[C-]#[N+]CC(C)(C)OC.[C-]#[N+]CC(C)(C)OC.[C-]#[N+]CC(C)(C)OC.[Tc]` [^99mTc-Sestamibi], in data set [1], the biological half-life entry was “long” and the extraction efficiency result is listed as “high”. Moreover, the retention in muscle result in data set [2] is “consistent retention”. Moreover, the stability in data set [3] was 6 h.

Turning to `[Cl][201Tl]` [^201Tl—Cl, ^201Thallium-Chloride], the retention in muscle entry in data set [2] was “consistent retention”. In addition, the “muscle accumulation, extent relative to 99mTc-Sestamibi” value in data set [2] (i.v., imaging 3 hours post-injection) is recorded as “more widespread”.

For `CC[N+](C)(C)c1cccc(O)c1` [edrophonium], the “99mTc-Sestamibi uptake into muscle” value in data set [4] (edrophonium 0.2 mg/kg i.v., either pre- or post-m/t dosing, images 30 minutes post-injection) was “no effect”. For the same compound, in data set [4] (edrophonium 0.2 mg/kg i.v., pre- or post-m/t dosing vs baseline, images 30 minutes post-injection, FIG. 5), the “201Tl uptake into muscle” value is “dramatically enhanced; also recorded: increased”. In data set [4] (setting [6]), the “99mTc-Sestamibi uptake in skeletal muscle, statistical evaluation” value is recorded as “not” and the “201Tl uptake in skeletal muscle, statistical evaluation” value is “highly significant edrophonium effect”.

Regarding `FC(F)OC(Cl)C(F)(F)F` (centres unmarked) [isoflurane], the “accumulation of both agents (99mTc-Sestamibi and 201Tl-Cl) into muscle” value in data set [5] is given as “inhibited”.

For the compound ^99mTc-Teboroxime, in data set [1], the biological half-life entry is “short” and the extraction efficiency entry is recorded as “high”. In data set [3], the stability was 6 h.
